Results published in patent US20050181117A1, “Stent coating method” (Medtronic Vascular, Inc., priority 2003, published 2005).

Assay: percent drug eluted over time from coated stent
Assay type: physicochemical
Conditions: base coat podophyllotoxin, Cyclops-12, in THF; Cyclops-9 cap coat with THF as cap coat solvent (FIG. 6) vs acetone (FIG. 5)
From the text: The cap coating examples may be compatible with a variety of base coats of the present invention. In one embodiment, the cap coat provided by example 9 (e.g., Cyclops-9 in acetone) may be used with a base coat provided by example 6 (e.g., Resten-NG, PVPP, in methanol-water mix). The use of a cap coat may influence the release profile of the therapeutic agent, or drug. […] The stent is base coated with a Resten-NG, PVPP in methanol/water mixed solvent and (optionally) cap coated with a Cyclops-9 in acetone mixture.
In another embodiment, the cap coat provided by example 9 (e.g., Cyclops-9 in acetone or THF) may be used with a base coat provided by example 8 (e.g., podophyllotoxin, Cyclops-12, in THF). Depending on the solvent chosen for the cap coat (e.g., acetone or THF), a different drug release profile may be obtained. […] Thus, the drug release profile may be altered by using a different cap coat solvent.

COc1cc([C@@H]2c3cc4c(cc3[C@H](O)[C@H]3COC(=O)[C@H]23)OCO4)cc(OC)c1OC [podophyllotoxin]
elution rate (percent drug eluted over time): marked increase in elution rate
